One may read the AC50 as the concentration giving half of the maximal activity seen.

Results filed as inconclusive are left out. The source made the active and inactive calls.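 The calls were made as follows: active = compounds whose fitted AC50 for signal loss is at most twice the top valid dose tested; inconclusive = flat curve with 30 to 70% inhibition, or poor fit; inactive = the rest.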

Here are results for 26 compounds from PubChem BioAssay AID743340 (Broad Institute, 2014).

The target in one test is Leucyl-cystinyl aminopeptidase (Mus musculus) (UniProt Q8C129). The test is described as follows: IRAP inhibitors, dose response, selectivity assay for ERAP1 modulator project, biochemical, Leu-AMC fluorescence, cherry-picked samples, set 2 (AID 743340). Particulars: purified IRAP, Leu-AMC cleavage fluorescence, 1 h.
Sequence of Leucyl-cystinyl aminopeptidase (Mus musculus) (Q8C129 whole entry, looked up): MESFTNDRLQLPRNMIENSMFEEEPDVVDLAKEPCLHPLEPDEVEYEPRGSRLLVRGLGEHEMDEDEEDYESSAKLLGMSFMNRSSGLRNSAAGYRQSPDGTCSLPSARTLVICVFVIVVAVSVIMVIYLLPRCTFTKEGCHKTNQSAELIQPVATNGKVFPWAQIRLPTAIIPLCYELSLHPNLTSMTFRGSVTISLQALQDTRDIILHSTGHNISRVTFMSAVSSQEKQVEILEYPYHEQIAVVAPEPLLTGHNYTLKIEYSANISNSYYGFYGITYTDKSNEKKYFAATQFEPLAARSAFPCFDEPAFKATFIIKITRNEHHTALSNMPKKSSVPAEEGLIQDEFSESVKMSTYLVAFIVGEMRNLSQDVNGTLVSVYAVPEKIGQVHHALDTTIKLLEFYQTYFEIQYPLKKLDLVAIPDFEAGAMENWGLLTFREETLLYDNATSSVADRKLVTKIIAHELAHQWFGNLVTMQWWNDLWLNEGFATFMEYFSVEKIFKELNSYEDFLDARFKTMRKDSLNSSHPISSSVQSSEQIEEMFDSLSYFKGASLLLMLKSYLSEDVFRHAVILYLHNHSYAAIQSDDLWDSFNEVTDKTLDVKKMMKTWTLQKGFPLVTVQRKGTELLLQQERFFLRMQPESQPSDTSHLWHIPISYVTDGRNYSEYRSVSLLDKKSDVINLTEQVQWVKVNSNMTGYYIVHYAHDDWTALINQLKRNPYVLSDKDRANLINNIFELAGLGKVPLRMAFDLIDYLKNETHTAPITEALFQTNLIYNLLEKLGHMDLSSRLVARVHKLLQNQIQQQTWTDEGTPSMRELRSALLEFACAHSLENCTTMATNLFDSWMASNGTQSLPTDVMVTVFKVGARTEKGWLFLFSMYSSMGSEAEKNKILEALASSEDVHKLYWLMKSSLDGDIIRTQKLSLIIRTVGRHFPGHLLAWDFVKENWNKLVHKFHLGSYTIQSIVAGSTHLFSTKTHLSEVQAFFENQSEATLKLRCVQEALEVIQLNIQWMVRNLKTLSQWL
With `CCCN(C)C[C@@H]1OCCCC[C@@H](C)Oc2ccc(NS(=O)(=O)c3ccc(C)cc3)cc2C(=O)N([C@H](C)CO)C[C@@H]1C`, the AC50 is > 20 µM (inactive). On the same count and under the same terms, next, `CCCN(C)C[C@@H]1OCCCC[C@@H](C)Oc2ccc(NS(=O)(=O)c3ccc(OC)cc3)cc2C(=O)N([C@H](C)CO)C[C@@H]1C`: 11.2 µM.

Still in this test, the particulars now being: purified IRAP, Leu-AMC cleavage fluorescence, 1 h; at 5 µM (top of the series).
For the compound `CCCN(C)C[C@@H]1OCCCC[C@@H](C)Oc2ccc(NS(=O)(=O)c3ccc(C)cc3)cc2C(=O)N([C@@H](C)CO)C[C@@H]1C`, the “activity change, negative = inhibition” value is “inactive”.

Staying with this test, now noted: purified IRAP, Leu-AMC cleavage fluorescence, 1 h; at 11 µM (top of the series).
As for `C[C@@H]1CCCCO[C@@H](CN(C)Cc2ccc(C(=O)O)cc2)[C@H](C)CN([C@@H](C)CO)C(=O)c2cc(NS(=O)(=O)c3ccc(Cl)cc3)ccc2O1`, the “activity change, negative = inhibition” value is “inactive”. The same measure, in the same setting: to `C[C@@H]1CCCCO[C@@H](CN(C)Cc2ccccc2)[C@H](C)CN([C@H](C)CO)C(=O)c2cc(NS(=O)(=O)c3cccs3)ccc2O1` belongs “inactive”.

`COc1ccc2c3c([nH]c2c1)[C@H](CO)N(Cc1cc(F)ccc1F)CC31CN(C)C1`: the “activity change, negative = inhibition” value was “inactive”. Same read-out and setting: to `Cc1ccc(-c2cc(C(=O)N3CCCC3)c3ccccc3n2)s1` belongs “inactive”; to `CCCN(C)C[C@@H]1OCCCC[C@@H](C)Oc2ccc(NS(=O)(=O)c3ccc(F)cc3)cc2C(=O)N([C@H](C)CO)C[C@@H]1C`, “inactive”. Same read-out and setting: next, `C[C@H](CO)N1C[C@H](C)[C@H](CN(C)Cc2ccc(C(=O)O)cc2)Oc2c(NC(=O)Nc3ccccc3)cccc2C1=O`: “inactive”; `C[C@H]1CN([C@@H](C)CO)C(=O)c2cccc(NC(=O)Nc3ccc4c(c3)OCO4)c2O[C@@H]1CN(C)CC1CC1`: “inactive”. In the case of `CO[C@@H]1CN(C)C(=O)c2ccc(NC(=O)Nc3cccc(Cl)c3)cc2OC[C@@H](C)NC[C@H]1C`, the “activity change, negative = inhibition” value is “inactive”. As for `C[C@@H]1CCCCO[C@H](CN(C)C)[C@H](C)CN([C@H](C)CO)C(=O)c2cc(NS(=O)(=O)c3ccc(Cl)cc3)ccc2O1`, the “activity change, negative = inhibition” value is “inactive”.

For `O=C(CSc1cn[nH]n1)Nc1cccc(C(=O)O)c1`, the “activity change, negative = inhibition” value was “inactive”. Still for that read-out and setting: next, `COc1ccc(CN(C)C[C@@H]2OCCCC[C@@H](C)Oc3ccc(NS(=O)(=O)c4cccs4)cc3C(=O)N([C@H](C)CO)C[C@@H]2C)cc1`: “inactive”; `C[C@H]1CN([C@@H](C)CO)C(=O)c2cccc(NC(=O)Nc3ccc(F)cc3)c2O[C@@H]1CN(C)C(=O)Nc1ccc2c(c1)OCO2`: “inactive”. Turning to `C[C@@H]1CCCCO[C@H](CN(C)Cc2ccccc2)[C@H](C)CN([C@H](C)CO)C(=O)c2cc(NS(=O)(=O)c3ccccc3)ccc2O1`, the “activity change, negative = inhibition” value is “inactive”.

For the compound `Cc1noc(C)c1S(=O)(=O)Nc1ccc2c(c1)C(=O)N([C@H](C)CO)C[C@@H](C)[C@@H](CN(C)CC1CCCCC1)OCCCC[C@@H](C)O2`, the “activity change, negative = inhibition” value was “inactive”. Same read-out and setting: to `COc1ccc(CN(C)C[C@@H]2OCCCC[C@@H](C)Oc3ccc(NS(=O)(=O)c4cccs4)cc3C(=O)N([C@@H](C)CO)C[C@H]2C)cc1` belongs “inactive”. In the case of `CCC(=O)N(C)C[C@H]1Oc2ncc(C#Cc3ccncc3)cc2C(=O)N([C@H](C)CO)C[C@H]1C`, the “activity change, negative = inhibition” value was “inactive”. The same measure, in the same setting: to `CCC(=O)N(C)C[C@@H]1Oc2ncc(C#Cc3ccncc3)cc2C(=O)N([C@@H](C)CO)C[C@@H]1C` belongs “inactive”; to `COc1ccc(NC(=O)Nc2ccc3c(c2)C(=O)N([C@H](C)CO)C[C@@H](C)[C@H](CN(C)Cc2ccc(C(=O)O)cc2)OCCCC[C@@H](C)O3)cc1`, “inactive”; to `Cc1ccccc1-c1ccc2c(c1)O[C@@H](CN(C)Cc1ccc(C(=O)O)cc1)[C@@H](C)CN([C@H](C)CO)S2(=O)=O`, “inactive”. On the same count and under the same terms, to `Cc1ccc(S(=O)(=O)Nc2ccc3c(c2)C(=O)N([C@@H](C)CO)C[C@H](C)[C@H](CN(C)C)OCCCC[C@@H](C)O3)cc1` belongs “inactive”. Same read-out and setting: to `COc1ccc(CN(C)C[C@H]2OCCCC[C@@H](C)Oc3ccc(NS(=O)(=O)c4cccs4)cc3C(=O)N([C@@H](C)CO)C[C@@H]2C)cc1` belongs “inactive”; to `O=C(Nc1ccc(C(F)(F)F)cc1)N1[C@@H]2CNC[C@H]1C2c1ccc(-c2ccncc2)cc1` (stereo partly specified), “inactive”; to `C[C@@H]1CCCCO[C@@H](CN(C)Cc2ccc3c(c2)OCO3)[C@@H](C)CN([C@H](C)CO)C(=O)c2cc(NS(=O)(=O)c3cccs3)ccc2O1`, “inactive”.
